Measurements from paper PMC10762035, “Molecular basis of human trace amine-associated receptor 1 activation” (Nature Communications, 2024).
Changes are numbered by the printed parent chain. Values joined by “and” are separate entries in the source; they are usually repeats but may differ in a detail not shown here. Identical values can stand only once. Like-named read-outs stand apart in the source and are kept apart here.

How the values were obtained:
Assay type in all cases: cell-based
[1] = target: T1, hTA1 (Homo sapiens, UniProt Q96RJ0); assay: GloSensor cAMP accumulation assay, concentration response, wild-type hTA1 in transfected HEK293T cells; settings: for Dose-response curves for asenapine vs endogenous trace amines: log[Compound], replicate values (N=2);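 for all read-outs here: luminescence read after 30 min compound exposure at room temperature in cells preloaded with D-Luciferin, reflecting Gs-driven cAMP rise, efficacy scaled to the maximal β-PEA response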
T1 construct: expressed in transfected cells; host or cells: HEK293T
T1 sequence (Q96RJ0 1-339): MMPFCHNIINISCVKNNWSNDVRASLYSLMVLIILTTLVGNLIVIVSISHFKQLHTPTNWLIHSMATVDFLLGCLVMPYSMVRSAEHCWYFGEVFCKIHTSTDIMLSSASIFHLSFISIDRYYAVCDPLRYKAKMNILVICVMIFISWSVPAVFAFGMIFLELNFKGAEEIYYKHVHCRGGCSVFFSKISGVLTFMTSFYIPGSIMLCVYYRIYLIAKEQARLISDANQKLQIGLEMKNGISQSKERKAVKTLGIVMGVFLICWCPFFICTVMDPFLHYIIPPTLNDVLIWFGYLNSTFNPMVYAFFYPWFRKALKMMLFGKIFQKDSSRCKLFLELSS

[2] = target: T2, hTA1 R83H (Homo sapiens, UniProt Q96RJ0, R83H); assay: GloSensor cAMP accumulation assay, R83H mutant; settings: for ΔEmax values (each mutant value - WT average) / ΔpEC50 values (each mutant value - WT average): R83H mutant minus WT average; for Emax values, Mean: β-PEA = 100;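 for all read-outs here: cells transiently co-expressing hTA1 and a cAMP GloSensor, luminescence read 30 min after agonist addition at room temperature, concentration–response fitted by non-linear regression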
T2 construct: expressed in transfected cells; host or cells: HEK293T
T2 sequence (Q96RJ0 1-339 R83H): T1 sequence (Q96RJ0 1-339) with R83H

[3] = target: T3, hTA1 T271N (Homo sapiens, UniProt Q96RJ0, T271N); assay: GloSensor cAMP accumulation assay, T271N mutant; settings: for ΔpEC50 values (each mutant value - WT average), Mean: T271N mutant minus WT average; for Emax values, Mean: β-PEA = 100
T3 construct: expressed in transfected cells; host or cells: HEK293T
T3 sequence (Q96RJ0 1-339 T271N): T1 sequence (Q96RJ0 1-339) with T271N

[4] = WT hTA1, β-PEA = 100, each line an independent experiment, 3 replicates
[5] = WT, average of the experiments, β-PEA = 100
[6] = WT, average of the two experiments
[7] = WT, mean of each independent experiment (3 replicates), β-PEA = 100
[8] = WT, single experiments (3 replicates each), β-PEA = 100
[9] = R83H mutant, each line an independent experiment, 3 replicates
[10] = T271N mutant, Figure 5B, each row one independent experiment (3 replicates)
[11] = WT hTA1, average of the two experiments, Figure 2B source data
[12] = WT hTA1, each line an independent experiment, 3 replicates, Figure 2B source data
[13] = wt hTA1, HEK293T, n=3, read-out: EC50

SMILES	Emax values, Mean [1, 4]	Emax values, Avg [1, 5]	Emax values, Avg [1, 6]	Emax values, Mean [1, 7]	Emax values, Mean [1, 8]	ΔEmax values (each mutant value - WT average) [2]	ΔpEC50 values (each mutant value - WT average) [2]	Emax values, Mean [2, 9]	ΔpEC50 values (each mutant value - WT average), Mean ([3]; Figure 5B)	Emax values, Mean [3, 10]	pEC50 values, Avg [1, 11]	pEC50 values, Mean [1, 12]	pEC50 ± SEM ([1]; wt hTA1, HEK293T, n=3)	EC50 [1, 13]	Emax ([1]; wt hTA1, relative to β-PEA)	Span ± SEM (Emax normalized to β-PEA) ([2]; R83H, n=2)	pEC50 values, Mean [3, 10]	pEC50 ± SEM ([3]; T271N, n=2)	EC50 ([3]; T271N, n=2, read-out: EC50)	other results
CCC(CC1COC(N)=N1)c1ccccc1 (centres unmarked) [Ro5256390]	101.582	103.3	103.3	105.026 and 101.582	105.026 and 101.582	-44.6015	-0.01027 and 0.0342	58.7027 and 38.4174	-0.2524 and -0.4929	121.264 and 99.7038										EC50 ([1]; EC50, wt hTA1, HEK293T, n=3): 5.33 nM and 5.3 nM; Emax ([1]; HEK-293T, read-out: Emax values (Mean), WT hTA1, β-PEA = 100, each line an independent experiment, 3 replicates): 105%; Emax ([1]; HEK-293T, wt hTA1, relative to β-PEA): 103%; EC50 ([1]; pEC50 values (Mean), WT hTA1, each line an independent experiment, 3 replicates, Figure 2B source data): 4.28 nM and 6.65 nM; EC50 ([1]; pEC50 ± SEM, wt hTA1, HEK293T, n=3): 5.37 nM; EC50 ([2]; EC50, R83H, n=2): 5.19 nM; EC50 ([2]; pEC50 values (Mean), R83H mutant, each line an independent experiment, 3 replicates): 5.46 nM and 4.93 nM; Emax ([2]; read-out: Span ± SEM (Emax normalized to β-PEA), R83H, n=2): 48.6 ± 10.1%; EC50 ([3]; EC50, T271N, n=2): 12.6 nM; EC50 ([3]; pEC50 values, Mean, T271N mutant, Figure 5B, each row one independent experiment (3 replicates)): 9.54 nM and 16.6 nM; Emax ([3]; read-out: Span ± SEM (Emax normalized to β-PEA), T271N, n=2): 110%
Cc1c(F)cccc1[C@H]1COC(N)=N1 [Ro5263397]	87.687 and 85.7197	86.7	86.7	87.687 and 85.7197	87.687 and 85.7197	-44.7513	-0.3934 and -0.2739	41.952 and 25.7686	-0.511 and -0.5494	116.619 and 99.549	8.831	8.992 and 8.671	8.83 ± 0.09	1.47 nM and 1.48 nM	86.7%	33.86 ± 8.09	8.32 and 8.282	8.3 ± 0.07	5 nM	pEC50 values, Mean [2, 9]: 8.438 and 8.557; pEC50 ± SEM ([2]; R83H, n=2): 8.5 ± 0.15; EC50 ([2]; R83H, n=2, read-out: EC50): 3.18 nM; Span ± SEM (Emax normalized to β-PEA) ([3]; T271N, n=2): 108.08 ± 8.54
NCCc1ccc(Oc2ccc(O)cc2)c(I)c1 [T1AM, 3-iodothyronamine]	81.6192 and 59.2734	70.45	70.45	81.6192 and 59.2734	81.6192 and 59.2734	-50.5458		19.9005 and -6.007	0.1858 and 0.05902	147.043 and 92.5588	6.129	6.182 and 6.077	6.13 ± 0.04	743 nM	70.5%	6.95 ± 12.95	6.315 and 6.188	6.25 ± 0.03	560 nM	Emax values, Avg ([1]; WT hTA1, β-PEA = 100, average of the two experiments): 70.45; Dose-response curves for asenapine vs endogenous trace amines ([1]; M = -5): 80.3892 and 70.8419 and 77.0287 and 53.9778 and 58.2977 and 47.0284; Dose-response curves for asenapine vs endogenous trace amines ([1]; M = -5.522): 67.6372 and 58.4905 and 72.8448 and 53.4613 and 47.5449 and 34.1625; Dose-response curves for asenapine vs endogenous trace amines ([1]; M = -6): 47.6524 and 43.0457 and 45.9165 and 36.4633 and 32.8477 and 25.2879; Dose-response curves for asenapine vs endogenous trace amines ([1]; M = -6.522): 27.5341 and 25.2641 and 26.1988 and 18.1976 and 14.2064 and 10.9195; Dose-response curves for asenapine vs endogenous trace amines ([1]; M = -7): 12.6456 and 9.641 and 11.7554 and 4.346 and 3.125 and 2.796; Dose-response curves for asenapine vs endogenous trace amines ([1]; M = -7.522): 2.609 and 0.272 and 1.897 and 0.1666 and -0.02121 and -0.8664; Dose-response curves for asenapine vs endogenous trace amines ([1]; M = -8): 1.34 and 0.4055 and 0.9619 and 0.2136 and -0.06817 and -0.9603; Dose-response curves for asenapine vs endogenous trace amines ([1]; M = -8.522): -0.9075 and -0.6182 and -0.5737 and -1.007 and 0.1197 and -2.04; Dose-response curves for asenapine vs endogenous trace amines ([1]; M = -9): -0.9521 and -0.863 and -1.419 and -0.8664 and -0.8195 and -1.618; Dose-response curves for asenapine vs endogenous trace amines ([1]; M = -9.522): -1.019 and -2.087 and -1.442 and -1.383 and -0.8195 and -2.228; Dose-response curves for asenapine vs endogenous trace amines ([1]; M = -10): -0.863 (2×) and -1.286 and -1.477 and -1.054 and -1.571; Dose-response curves for asenapine vs endogenous trace amines ([1]; M = -10.522): -1.531 and -2.287 and -1.464 and -1.571 and -1.336 and -1.618; Dose-response curves for asenapine vs endogenous trace amines ([1]; M = -11): -0.1731 and -0.9075 and -0.3734 and -0.5847 and 0.1197 and -1.054; Dose-response curves for asenapine vs endogenous trace amines ([1]; M = -11.522): -0.507 and -1.152 and -1.197 and -0.209 and -0.1151 and -1.054; Dose-response curves for asenapine vs endogenous trace amines ([1]; M = -12): -0.774 and -1.419 and -1.8645 and -1.336 (2×) and -1.571; Dose-response curves for asenapine vs endogenous trace amines ([1]; M = -12.522): -1.019 and -1.798 (2×) and -0.7255 and -1.43 and -2.087; Emax ([3]; T271N, relative to β-PEA): 119.8%
